Like-named read-outs stand apart in the source and are kept apart here.
Assays:
[1] = test system: HCV genotype 1b replicon; assay: HCV replicon assay, genotype 1b replicon EC50; type: cell-based, Hepatitis C virus; conditions: Hepatitis C virus, genotype 1b replicon, read-out: EC50 [gt-1b]
Method in brief: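 Stable neomycin phosphotransferase-encoding replicon cell lines, kept under G418 selection beforehand, were plated with a compound dilution series without G418 and incubated 24-48 hours. Replicon RNA was then quantified, or luciferase activity read. EC50 was calculated as percent of DMSO control by four-parameter fit.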

[2] = target: HCV NS3/4A protease genotype 1b (Hepatitis C virus genotype 1b, UniProt P26663); assay: HCV NS3/4A protease time-resolved fluorescence (TRF) assay, Ki against genotype 1b; type: biochemical; conditions: IC50 [gt-1b] (nM), NS3/4A genotype 1b, enzyme 0.2 nM
Method in brief: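 Time-resolved fluorescence readout of NS3/4A cleavage of 25 nM europium-labelled peptide over 2.5 h at room temperature, enzyme levels set for signal/background 10–30 (0.2, 0.4, 0.025 nM for 1b, A156T, 3a). Ki by IC50=Ki(1+[S]/KM).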

[3] = target: HCV NS3/4A protease A156T mutant (Hepatitis C virus genotype 1b, UniProt P26663, A1182T); assay: HCV NS3/4A protease time-resolved fluorescence (TRF) assay, Ki against A156T mutant; type: biochemical; conditions: NS3/4A gt-1b A156T mutant, enzyme 0.4 nM, read-out: IC50 [gt-1b A156T]
Experimental: (§1) Measuring NS3/4A Inhibitory Activity (Ki) Against Genotype 1b, Against A156T Mutants and Against Genotype 3a
(§2) One assay for measuring inhibitory activity is HCV NS3 protease time-resolved fluorescence (TRF) assay as described below and in Mao et al., Anal. Biochem. 373:1-8, 2008 and International Patent Application Publication WO 2006/102087. A NS3 protease assay can be performed, for example, in a final volume of 20 μl assay buffer containing 50 mM HEPES, pH 7.5, 150 mM NaCl, 15% glycerol, 0.15% TRITON X-100, 10 mM DTT, and 0.1% PEG 8000. NS3 and NS4A protease is pre-incubated with various concentrations of inhibitors in DMSO for 30 min. The reaction is initiated by adding the TRF peptide substrate (final concentration 25 nM). NS3 mediated hydrolysis of the substrate was run for 2.5 hours at room temperature. Product fluorescence is detected using A Pherastar Plus plate reader (BMG) or Envision (Perkin Elmer Life and Analytical Sciences with excitation at 340 nm and emission at 615 nm using the appropriate delay time optimized for the europium fluorescence probe. Testing concentrations of different enzyme forms are selected to result in a signal to background ratio (S/B) of 10-30. IC50 values are derived using a standard four-parameter fit to the data. Ki values are derived from IC50 values using the following formula, IC50=Ki(1+[S]/KM), Eqn (1), where [S] is the concentration of substrate peptide in the reaction and KM is the Michaelis constant. See P. Gallinari et al., 38 BIOCHEM. 5620-32 (1999); P. Gallinari et al., 72 J. VIROL. 6758-69 (1998); M. Taliani et al., 240 ANAL. BIOCHEM. 60-67 (1996); Mao et al., Analytical Biochemistry 373: 1-8, 2008.
(§3) The assay described above was run against genotype 1b at a concentration of 0.2 nM, against A156T mutant strains at a concentration of 0.4 nM, and against genotype 3a at a concentration of 0.025 nM.

[4] = target: HCV NS3/4A protease genotype 3a (Hepatitis C virus genotype 3a, UniProt Q81495); assay: HCV NS3/4A protease time-resolved fluorescence (TRF) assay, Ki against genotype 3a; type: biochemical
Experimental: as §1, §2, §3

Q: For CC(C)(C)OC(=O)N[C@H]1CCCCC/C=C\[C@@H]2C[C@@]2(C(=O)NS(=O)(=O)C2(C)CC2)NC(=O)[C@@H]2C[C@]3(CCc4c(c(C(F)(F)F)nc5ccc(OCCCN6CCOCC6)cc45)O3)CN2C1=O [Example 50, tert-Butyl ((2R,6S,13aS,14aR,16aS,Z)-14a-(((1-methylcyclopropyl)sulfonyl)carbamoyl)-9′-(3-morpholinopropoxy)-5,16-dioxo-5′-(trifluoromethyl)-1′,2′,3,5,6,7,8,9, 10,11,13a,14,14a,15,16,16a-hexadecahydro-1H-spiro[cyclopropa[e]pyrrolo[1,2-a][1,4]diazacyclopentadecine-2,3′-pyrano[2,3-c]quinolin]-6-yl)carbamate], which EC50 [1] is on record?
A: 0.284 nM

Q: And the IC50 [2]?
A: 0.01 nM

Q: And the IC50 [3]?
A: 0.0786 nM

Q: What about the IC50 [4] of the same compound?
A: 0.0965 nM

Q: Which EC50 [1] does the source give for Cc1nc2ccccc2c2c1O[C@]1(CC2)C[C@H]2C(=O)N[C@]3(C(=O)NS(=O)(=O)C4(C)CC4)C[C@H]3/C=C\CCCCC[C@H](NC(=O)OC(C)(C)C)C(=O)N2C1 [Example 74, tert-butyl [(2R,6S,12Z,13aS,14aR,16aS)-5′-methyl-14a-{[(1-methylcyclopropyl)sulfonyl]carbamoyl}-5,16-dioxo-1,1′,2′,5,6,7,8,9,10,11,13a,14,14a,15,16,16a-hexadecahydrospiro[cyclopropa[e]pyrrolo[1,2-a][1,4]diazacyclopentadecine-2,3′-pyrano[2,3-c]quinolin]-6-yl]carbamate] here?
A: 2.48 nM

Q: And the IC50 [2]?
A: 0.008 nM

Q: What about the IC50 [3] of the same compound?
A: 0.124 nM

Q: What about the IC50 [4] of the same compound?
A: 0.572 nM

Q: Which EC50 ([1]; K+ salt) does the source give for Cc1nc2ccc(Cl)cc2c2c1O[C@]1(CC2)C[C@H]2C(=O)N[C@]3(C(=O)NS(=O)(=O)C4(C)CC4)C[C@H]3/C=C\CCCCC[C@H](NC(=O)OCC(C)C)C(=O)N2C1 [Example 189, 2-methylpropyl [(2R,6S,12Z,13aS,14aR,16aS)-9′-chloro-5′-methyl-14a-{[(1-methylcyclopropyl)sulfonyl]carbamoyl}-5,16-dioxo-1,1′,2′,5,6,7,8,9,10,11,13a,14,14a,15,16,16a-hexadecahydrospiro[cyclopropa[e]pyrrolo[1,2-a][1,4]diazacyclopentadecine-2,3′-pyrano[2,3-c]quinolin]-6-yl]carbamate] here?
A: 6.42 nM

Q: What about the IC50 ([2]; K+ salt) of the same compound?
A: 0.002 nM

Q: What about the IC50 ([3]; K+ salt) of the same compound?
A: 0.062 nM

Q: And the IC50 [4]?
A: 0.394 nM

Q: For Cc1nc2cc(F)c(F)cc2c2c1O[C@]1(CC2)C[C@H]2C(=O)N[C@]3(C(=O)NS(=O)(=O)C4(C)CC4)C[C@H]3/C=C\CCCCC[C@H](NC(=O)OC(C)C)C(=O)N2C1 [Example 194, propan-2-yl [(2R,6S,12Z,13aS,14aR,16aS)-8′,9′-difluoro-5′-methyl-14a-{[(1-methylcyclopropyl)sulfonyl]carbamoyl}-5,16-dioxo-1,1′,2′,5,6,7,8,9,10,11,13a,14,14a,15,16,16a-hexadecahydrospiro[cyclopropa[e]pyrrolo[1,2-a][1,4]diazacyclopentadecine-2,3′-pyrano[2,3-c]quinolin]-6-yl]carbamate], which EC50 ([1]; K+ salt) is on record?
A: 8.28 nM

Q: What about the IC50 ([2]; K+ salt) of the same compound?
A: 0.007 nM

Q: And the IC50 ([3]; K+ salt)?
A: 0.0541 nM

Q: What about the IC50 [4] of the same compound?
A: 0.994 nM

Q: For Cc1nc2cc(F)c(F)cc2c2c1O[C@]1(CC2)C[C@H]2C(=O)N[C@]3(C(=O)NS(=O)(=O)C4(C)CC4)C[C@H]3/C=C\CCCCC[C@H](NC(=O)OC3(C)CC3)C(=O)N2C1 [Example 195, 1-methylcyclopropyl [(2R,6S,12Z,13aS,14aR,16aS)-8′,9′-difluoro-5′-methyl-14a-{[(1-methylcyclopropyl)sulfonyl]carbamoyl}-5,16-dioxo-1,1′,2′,5,6,7,8,9,10,11,13a,14,14a,15,16,16a-hexadecahydrospiro[cyclopropa[e]pyrrolo[1,2-a][1,4]diazacyclopentadecine-2,3′-pyrano[2,3-c]quinolin]-6-yl]carbamate], which EC50 ([1]; K+ salt) is on record?
A: 8.67 nM

Q: And the IC50 ([2]; K+ salt)?
A: 0.01 nM

Q: What about the IC50 ([3]; K+ salt) of the same compound?
A: 0.134 nM

Q: And the IC50 [4]?
A: 1.73 nM

Q: How did the EC50 [1] turn out when COc1ccc2nc(C)c3c(c2c1)CC[C@]1(C[C@H]2C(=O)N[C@]4(C(=O)NS(=O)(=O)C5(C)CC5)C[C@H]4/C=C\CCCCC[C@H](NC(=O)OC4(C)COC4)C(=O)N2C1)O3 [Example 198, 3-methyloxetan-3-yl [(2R,6S,12Z,13aS,14aR,16aS)-9′-methoxy-5′-methyl-14a-{[(1-methylcyclopropyl)sulfonyl]carbamoyl}-5,16-dioxo-1,1′,2′,5,6,7,8,9,10,11,13a,14,14a,15,16,16a-hexadecahydrospiro[cyclopropa[e]pyrrolo[1,2-a][1,4]diazacyclopentadecine-2,3′-pyrano[2,3-c]quinolin]-6-yl]carbamate] was run?
A: 9.19 nM

Q: What about the IC50 [2] of the same compound?
A: 0.006 nM

Q: What about the IC50 [3] of the same compound?
A: 0.104 nM

Q: And the IC50 [4]?
A: 0.561 nM

Q: For COc1ccc2nc(C)c3c(c2c1)CC[C@]1(C[C@H]2C(=O)N[C@]4(C(=O)NS(=O)(=O)C5(C)CC5)C[C@H]4/C=C\CCCCC[C@H](NC(=O)OC4CCC4)C(=O)N2C1)O3 [Example 199, cyclobutyl [(2R,6S,12Z,13aS,14aR,16aS)-9′-methoxy-5′-methyl-14a-{[(1-methylcyclopropyl)sulfonyl]carbamoyl}-5,16-dioxo-1,1′,2′,5,6,7,8,9,10,11,13a,14,14a,15,16,16a-hexadecahydrospiro[cyclopropa[e]pyrrolo[1,2-a][1,4]diazacyclopentadecine-2,3′-pyrano[2,3-c]quinolin]-6-yl]carbamate], which EC50 ([1]; K+ salt) is on record?
A: 1 nM

Q: What about the IC50 ([2]; K+ salt) of the same compound?
A: 0.003 nM

Q: And the IC50 ([3]; K+ salt)?
A: 0.0462 nM

Q: And the IC50 [4]?
A: 0.287 nM

Q: How did the EC50 [1] turn out when Cc1nc2ccc(C(F)(F)F)cc2c2c1O[C@]1(CC2)C[C@H]2C(=O)N[C@]3(C(=O)NS(=O)(=O)C4(C)CC4)C[C@H]3/C=C\CCCCC[C@H](NC(=O)OCC(C)(C)C)C(=O)N2C1 [Example 255, 2,2-dimethylpropyl [(2R,6S,12Z,13aS,14aR,16aS)-5′-methyl-14a-{[(1-methylcyclopropyl)sulfonyl]carbamoyl}-5,16-dioxo-9′-(trifluoromethyl)-1,1′,2′,5,6,7,8,9,10,11,13a,14,14a,15,16,16a-hexadecahydrospiro[cyclopropa[e]pyrrolo[1,2-a][1,4]diazacyclopentadecine-2,3′-pyrano[2,3-c]quinolin]-6-yl]carbamate] was run?
A: 50.9 nM

Q: And the IC50 [2]?
A: 0.015 nM

Q: And the IC50 [3]?
A: 0.679 nM

Q: And the IC50 [4]?
A: 2.86 nM

Q: With COc1ccc2nc(C)c3c(c2c1)C(F)(F)C[C@]1(C[C@H]2C(=O)N[C@]4(C(=O)NS(=O)(=O)C5(C)CC5)C[C@H]4/C=C\CCCCC[C@H](NC(=O)OCC(C)C)C(=O)N2C1)O3 [Example 266, 2-methylpropyl [(2S,6S,12Z,13aS,14aR,16aS)-1′,1′-difluoro-9′-methoxy-5′-methyl-14a-{[(1-methylcyclopropyl)sulfonyl]carbamoyl}-5,16-dioxo-1,1′,2′,5,6,7,8,9,10,11,13a,14,14a,15,16,16a-hexadecahydrospiro[cyclopropa[e]pyrrolo[1,2-a][1,4]diazacyclopentadecine-2,3′-pyrano[2,3-c]quinolin]-6-yl]carbamate] as the compound, how does the EC50 ([1]; K+ salt) read?
A: 4.47 nM

Q: What about the IC50 ([2]; K+ salt) of the same compound?
A: 0.014 nM

Q: What about the IC50 ([3]; K+ salt) of the same compound?
A: 0.384 nM

Q: What about the IC50 [4] of the same compound?
A: 2.1 nM

— US8987195B2 (priority 2012, dated 2015)
